In article PMC2553423 (Glycobiology, 2008):

T1: EngPA (Cutibacterium acnes, UniProt A0ABM7H013)
T1 sequence (A0ABM7H013 1-1321): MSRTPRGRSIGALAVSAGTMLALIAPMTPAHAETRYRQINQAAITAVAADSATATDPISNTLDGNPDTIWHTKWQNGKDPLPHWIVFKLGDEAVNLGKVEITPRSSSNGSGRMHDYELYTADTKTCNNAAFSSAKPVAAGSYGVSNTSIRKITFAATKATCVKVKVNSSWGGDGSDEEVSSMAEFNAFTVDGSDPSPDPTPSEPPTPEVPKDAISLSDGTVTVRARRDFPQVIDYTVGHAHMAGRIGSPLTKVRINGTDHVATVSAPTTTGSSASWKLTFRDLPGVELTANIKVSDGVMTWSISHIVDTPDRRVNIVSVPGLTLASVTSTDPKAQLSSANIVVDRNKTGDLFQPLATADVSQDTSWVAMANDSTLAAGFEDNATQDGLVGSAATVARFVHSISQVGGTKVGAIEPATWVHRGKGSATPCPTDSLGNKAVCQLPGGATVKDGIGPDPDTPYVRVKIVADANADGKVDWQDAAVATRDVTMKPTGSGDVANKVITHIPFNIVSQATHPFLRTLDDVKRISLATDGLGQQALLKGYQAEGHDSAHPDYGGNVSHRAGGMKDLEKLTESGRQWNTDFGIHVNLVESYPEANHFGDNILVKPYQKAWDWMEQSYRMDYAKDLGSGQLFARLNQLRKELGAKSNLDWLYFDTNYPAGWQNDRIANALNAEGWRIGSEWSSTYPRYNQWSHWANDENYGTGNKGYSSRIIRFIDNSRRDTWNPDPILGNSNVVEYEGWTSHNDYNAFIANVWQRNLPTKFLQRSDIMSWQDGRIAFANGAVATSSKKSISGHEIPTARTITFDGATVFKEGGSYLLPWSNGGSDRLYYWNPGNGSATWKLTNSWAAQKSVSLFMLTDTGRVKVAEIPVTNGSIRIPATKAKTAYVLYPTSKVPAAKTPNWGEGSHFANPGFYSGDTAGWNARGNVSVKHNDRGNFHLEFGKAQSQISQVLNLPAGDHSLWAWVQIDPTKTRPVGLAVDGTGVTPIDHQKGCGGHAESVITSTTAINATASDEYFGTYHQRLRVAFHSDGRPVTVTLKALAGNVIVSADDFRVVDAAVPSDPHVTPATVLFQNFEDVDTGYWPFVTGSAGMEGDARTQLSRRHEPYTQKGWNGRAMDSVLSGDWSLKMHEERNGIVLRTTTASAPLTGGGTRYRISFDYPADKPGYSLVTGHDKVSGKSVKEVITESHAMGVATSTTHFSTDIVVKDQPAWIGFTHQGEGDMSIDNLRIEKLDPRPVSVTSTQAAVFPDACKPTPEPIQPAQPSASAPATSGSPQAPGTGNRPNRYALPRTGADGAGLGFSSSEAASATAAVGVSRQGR

T2: EngEF (Enterococcus faecalis, UniProt Q833X5)
T2 sequence (Q833X5 1-1324): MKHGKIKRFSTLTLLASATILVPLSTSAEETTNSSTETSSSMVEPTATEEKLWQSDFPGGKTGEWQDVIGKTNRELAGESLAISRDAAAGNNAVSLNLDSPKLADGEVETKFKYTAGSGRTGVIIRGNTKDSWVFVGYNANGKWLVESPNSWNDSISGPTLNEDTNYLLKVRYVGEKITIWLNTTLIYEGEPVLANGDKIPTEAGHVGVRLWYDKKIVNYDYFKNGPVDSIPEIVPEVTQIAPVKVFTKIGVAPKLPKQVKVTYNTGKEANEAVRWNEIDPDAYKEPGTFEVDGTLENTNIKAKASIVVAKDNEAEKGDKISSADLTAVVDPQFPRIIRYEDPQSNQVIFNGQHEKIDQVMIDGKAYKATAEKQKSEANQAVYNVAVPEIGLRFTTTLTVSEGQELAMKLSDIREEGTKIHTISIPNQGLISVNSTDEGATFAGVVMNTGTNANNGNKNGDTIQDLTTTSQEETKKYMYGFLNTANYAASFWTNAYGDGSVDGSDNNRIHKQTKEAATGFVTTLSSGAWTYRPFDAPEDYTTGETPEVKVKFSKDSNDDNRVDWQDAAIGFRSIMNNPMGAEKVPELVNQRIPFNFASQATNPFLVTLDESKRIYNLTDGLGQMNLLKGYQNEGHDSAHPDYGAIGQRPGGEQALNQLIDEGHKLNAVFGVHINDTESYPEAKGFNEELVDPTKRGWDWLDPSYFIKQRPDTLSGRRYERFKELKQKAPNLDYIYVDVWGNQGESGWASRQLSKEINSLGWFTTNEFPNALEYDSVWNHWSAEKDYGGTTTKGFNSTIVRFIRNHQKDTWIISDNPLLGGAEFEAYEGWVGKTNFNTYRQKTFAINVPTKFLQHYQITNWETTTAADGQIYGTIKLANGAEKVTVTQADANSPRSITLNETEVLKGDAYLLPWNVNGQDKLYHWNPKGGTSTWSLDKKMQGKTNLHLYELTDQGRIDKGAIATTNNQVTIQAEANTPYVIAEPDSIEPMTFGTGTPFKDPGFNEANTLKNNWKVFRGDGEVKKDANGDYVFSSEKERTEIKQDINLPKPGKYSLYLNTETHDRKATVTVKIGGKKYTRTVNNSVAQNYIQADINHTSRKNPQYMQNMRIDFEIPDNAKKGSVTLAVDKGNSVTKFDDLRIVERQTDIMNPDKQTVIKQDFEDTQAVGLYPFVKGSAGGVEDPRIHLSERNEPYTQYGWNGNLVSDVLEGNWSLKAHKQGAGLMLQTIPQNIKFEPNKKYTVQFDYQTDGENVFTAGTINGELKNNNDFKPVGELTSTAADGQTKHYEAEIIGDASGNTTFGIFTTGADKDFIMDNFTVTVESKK

B1: EngEF (Enterococcus faecalis V583) (protein)
chain: T2 sequence (Q833X5 1-1324)

What was measured:
[1] = test system: EngAL; test: steady-state kinetics, pNP release at […] nm; type: biochemical, Alcaligenes sp.; conditions: 50 mM sodium phosphate pH 7.5, 5 mM MgCl2, 25°C
[2] = target: EngSP (Streptococcus pneumoniae, UniProt Q2MGH6); test: steady-state kinetics, pNP release at […] nm; type: biochemical; conditions: 50 mM sodium phosphate pH 7.5, 5 mM MgCl2, 25°C
[3] = target: EngCP (Clostridium perfringens, UniProt A0A0H2YQ40); type: biochemical
[4] = target: T1, EngPA; test: steady-state kinetics, pNP release at […] nm; type: biochemical; conditions: 50 mM sodium phosphate pH 7.5, 5 mM MgCl2, 25°C
[5] = target: T2, EngEF; test: steady-state kinetics, pNP release at […] nm; conditions: 50 mM sodium phosphate pH 7.5, 5 mM MgCl2, 25°C
[6] = substrate: CC(=O)N[C@H]1[C@H](O[C@H]2[C@@H](O)[C@@H](CO)O[C@H](Oc3ccc([N+](=O)[O-])cc3)[C@@H]2NC(C)=O)O[C@H](CO)[C@@H](O)[C@@H]1O; test: purified protein; conditions: 50 mM sodium phosphate pH 7.5, 5 mM MgCl2, 25°C

Molecule	Km [1] [µM]	Km [2] [µM]	Km [3] [µM]	Km [4] [µM]	Km [5] [µM]	Km [6] [µM]	kcat [6] [s⁻¹]
CC(=O)N[C@H]1[C@@H](Oc2ccc([N+](=O)[O-])cc2)O[C@H](CO)[C@H](O)[C@@H]1O[C@@H]1O[C@H](CO)[C@H](O)[C@H](O)[C@H]1O [Galβ1,3GalNAcα1pNP]	33.9	40.4	70.9	3.78	47.9		
B1						20.03	9.43
